These results are taken from a melting point compilation (Tetko et al.; mined from patent text by program, amines drawn as free bases though some values may be those of a salt).

Structures are written as SMILES.

For orientation: melting point means the temperature, or range, at which the solid turns liquid.

With `C[C@]12CCC(=O)N[C@@H]1CCc1cc(SCc3ccccc3)ccc12`, the melting point is 172 to 174 °C. As to `CN1C(=O)Cn2cnnc2-c2cc(Cl)ccc21`, the melting point lay in the range of 272 to 274 °C.

For the compound `CSc1nccc(C)c1NC(=O)CCCCCCCCSc1nc2ccccc2o1`, the melting point is 91 to 92 °C.

With `CCN(CCCc1c[nH]c2ccc(Cl)cc12)C1COc2c(F)ccc(C(N)=O)c2C1` (stereo unspecified), the melting point lay within 149 to 156 °C.

On to `CCCN(CCC)C1Cc2cc3c(cc2C1)C(=O)N(c1ccc(C#N)cc1)C3=O`, for which the melting point is 250 to 251 °C.

Compound `CC=CC1OC(=O)c2ccc(N)cc21` (stereo unspecified) gave a melting point of 125 to 130 °C. In turn, `CSCCNC(=O)c1cccc(-c2cccc(Oc3cc(Cl)cc(Cl)c3)n2)c1` returned a melting point of 123 to 124 °C. The compound `O=[N+]([O-])c1cccc(OCc2ccccc2)c1Cl` yielded a melting point of 94 °C. Under `O=c1oc(-c2ccccc2F)nc2c(Cl)ccc(Cl)c12` stands 140 °C; under `Cc1cc(OC2SCC(O)C(O)C2O)c(-c2ccnn2-c2ccccc2)cc1Cl` (stereo unspecified), 95 to 99 °C. As for `CCC(CC)Cn1c(=O)c(=O)[nH]c2cc(Cl)ccc21`, the figure is 253 to 255 °C. As for `CCOC(=O)C1CCn2c(cc3ccccc32)C1OC(C)=O` (stereo unspecified), the figure is 98 to 100 °C.

Compound `Cc1nc(-c2ccc(F)cc2)c(-c2ccc(S(C)(=O)=O)cc2)o1` returned a melting point of 158 to 159 °C. In the case of `CC12CCC3c4cc(C=O)c(O)cc4CCC3C1CCC2O` (stereo unspecified), the melting point lay in the range of 219 to 221 °C.

Compound `O[C@H](COc1cccc2[nH]ccc12)CN1CCC(c2c[nH]c3cc(Cl)ccc23)CC1` returned a melting point of 90 to 95 °C. Under `CC1(C)CCCN(C(=O)CN(C(=O)CNC(=O)Nc2cccc(CCO)c2)c2ccccc2)C1` stands 175 °C. Under `ON=Cc1c[nH]cc1-c1cccc(Cl)c1Cl` stands 158 to 160 °C; under `COC(=O)c1cc2ncnn2nc1NCCCN1CCC(OC(c2ccccc2)c2ccccc2)CC1`, 120 to 122 °C; under `CCOC(=O)C(C1c2ccccc2Sc2ccccc21)[N+](=O)[O-]` (stereo unspecified), 111 to 115 °C.

`CN(Cc1ccc([N+](=O)[O-])cc1)C(CO)CO` showed a melting point of 65 to 66 °C. As for `CN(C)CC1CCc2cc(NC(=O)N3CCC(c4ccc(F)cc4)CC3)ccc2C1O` (stereo unspecified), the figure is 160 to 163 °C; as for `O=CNc1nc2c(s1)-c1nc(-c3ccccc3)ncc1CC2`, 304 to 306 °C. As for `CC1=C(C(=O)OCCCN(C)C)C(c2ccccc2)C2=C(COC2=O)N1` (stereo unspecified), the figure is 112 to 115 °C; as for `CON=Cc1ccc2c(c1)ncn2-c1cccc(Br)c1`, 119 to 120 °C; as for `CC(Oc1ccc(F)cc1F)c1ccnc2ncnn12` (stereo unspecified), 96 to 97 °C. Under `O=C(N[C@@H](CO)c1nc2cc(Br)ccc2[nH]1)c1ccc(C(=O)N2CCCC2)c(Br)c1` stands 114 to 116 °C; under `O=Cc1c(-c2cccc(C(F)(F)F)c2)sc2ccccc12`, 103 to 104 °C; under `COc1ccc(/C=C/CNc2cccc(-c3ccnc4c(C(=O)c5cccs5)cnn34)c2)cc1`, 176 to 179 °C.

For the compound `COC(=O)c1ccc(CSc2nc3ccccc3[nH]2)cc1`, the melting point was 229 to 231 °C. Under `O=C(O)Cn1cccc(NC(=O)OCc2ccccc2)c1=O` stands 171 to 173 °C; under `C=CCC(Oc1cccc(C)c1C)C1=NCCN1` (stereo unspecified), 72 to 74 °C; under `COc1ccc2nc3ccc(C(N)=O)cn3c(=O)c2c1`, more than 310 °C.

Regarding `Cc1cc(=O)n2cccc(OCc3ccccc3)c2n1`, the melting point was 110 to 112 °C.

As to `O=C(O)Cc1cc(Br)ccc1OCCCc1ccccc1`, the melting point was in the range of 79.5 to 81 °C. The compound `COc1ccc2[nH]c(C(=O)NCCN(C)C)c(-c3ccccc3F)c2c1` came in with a melting point of 184 to 186 °C.

In turn, `O=C(O)c1ccc(CCC(=O)c2ccccc2)cc1` returned a melting point of 145 to 147 °C.
